The target of test [1] is T1, Prostaglandin G/H synthase 1 (Ovis aries, UniProt P05979).
T1 sequence (P05979 whole entry): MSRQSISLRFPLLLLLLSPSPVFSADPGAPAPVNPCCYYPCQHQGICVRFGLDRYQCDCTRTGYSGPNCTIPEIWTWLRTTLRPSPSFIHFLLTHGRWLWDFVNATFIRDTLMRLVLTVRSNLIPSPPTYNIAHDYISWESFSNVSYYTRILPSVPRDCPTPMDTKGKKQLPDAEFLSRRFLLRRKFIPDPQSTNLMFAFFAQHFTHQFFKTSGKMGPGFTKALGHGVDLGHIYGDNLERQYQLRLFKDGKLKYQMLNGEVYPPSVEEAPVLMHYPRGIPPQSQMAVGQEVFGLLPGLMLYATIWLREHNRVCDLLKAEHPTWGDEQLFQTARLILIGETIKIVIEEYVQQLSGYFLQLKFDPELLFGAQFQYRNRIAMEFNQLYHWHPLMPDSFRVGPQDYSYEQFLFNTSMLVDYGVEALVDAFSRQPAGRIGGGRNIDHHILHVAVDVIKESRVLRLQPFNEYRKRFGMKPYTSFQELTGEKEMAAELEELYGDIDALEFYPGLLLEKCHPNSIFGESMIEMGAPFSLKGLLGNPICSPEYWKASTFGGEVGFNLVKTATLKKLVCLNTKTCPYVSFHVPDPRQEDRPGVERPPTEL
Description: In vitro inhibition against ovine Prostaglandin G/H synthase 1

For test [2], the target named is T2, Prostaglandin G/H synthase 1 (Ovis aries) (UniProt P05979).
T2 sequence (whole entry): T1 sequence (P05979 whole entry)
Briefly: In vitro selectivity ratio of Prostaglandin G/H synthase 1 to Prostaglandin G/H synthase 2.

In ChEMBL document CHEMBL1136086, “6-Alkyl, alkoxy, or alkylthio-substituted 3-(4-methanesulfonylphenyl)-4-phenylpyran-2-ones: a novel class of diarylheterocyclic selective cyclooxygenase-2 inhibitors” (Bioorg Med Chem Lett, 2003) one finds IC50 and Ratio data, which are given here for nine molecules.

SMILES strings stand for the structures. pIC50: −log10 of the molar value.

For orientation: pIC50 means −log10 of the IC50, conventionally taken in molar units. Molecule `CCOc1cc(-c2ccccc2)c(-c2ccc(S(C)(=O)=O)cc2)c(=O)o1` gave a pIC50 in test [1] of 3.55.
Same read-out and setting: to `Cc1cc(-c2ccccc2)c(-c2ccc(S(C)(=O)=O)cc2)c(=O)o1` belongs 3.21.
Regarding `COc1cc(-c2ccccc2)c(-c2ccc(S(C)(=O)=O)cc2)c(=O)o1`, the Ratio in test [2] was under 0.52. In test [1], this molecule had a pIC50 of 4.83.
On to `CCc1cc(-c2ccccc2)c(-c2ccc(S(C)(=O)=O)cc2)c(=O)o1`, for which the pIC50 in test [1] is 5.10.
On to `CSc1cc(-c2ccccc2)c(-c2ccc(S(C)(=O)=O)cc2)c(=O)o1`, for which the Ratio in test [2] was determined as 35.7. Besides, the negative logarithm of the IC50 (pIC50) in test [1] is under 4.00.
With `CC(C)Oc1cc(-c2ccccc2)c(-c2ccc(S(C)(=O)=O)cc2)c(=O)o1`, the Ratio in test [2] came to 2. Besides, the pIC50 in test [1] is 5.40.
In test [1], `CC(C)Sc1cc(-c2ccccc2)c(-c2ccc(S(C)(=O)=O)cc2)c(=O)o1` gave a pIC50 of under 4.00.
The same measure, in the same setting: to `CCSc1cc(-c2ccccc2)c(-c2ccc(S(C)(=O)=O)cc2)c(=O)o1` belongs 3.41; to `CC(C)c1cc(-c2ccccc2)c(-c2ccc(S(C)(=O)=O)cc2)c(=O)o1`, 3.47.
